Reference: BigSolDB 2.1

Conditions: in water

O=S(=O)([O-])c1ccc(Nc2nc(Nc3ccc(/C=C/c4ccc(Nc5nc(Nc6ccc(S(=O)(=O)[O-])cc6)nc(N6CCOCC6)n5)cc4S(=O)(=O)[O-])c(S(=O)(=O)[O-])c3)nc(N3CCOCC3)n2)cc1.[Na+].[Na+].[Na+].[Na+]
Conditions | solubility (mole fraction)
273.15 K | 0.00029
278.45 K | 0.000399
283.35 K | 0.000545
288.75 K | 0.000757
293.25 K | 0.00099
298.75 K | 0.00137
303.15 K | 0.00179
307.55 K | 0.00219
310.75 K | 0.00264
313.95 K | 0.00319
